Experimental data from patent US20240052079A1 (OREGON HEALTH & SCIENCE UNIVERSITY, priority 2021, published 2024).
Where two headings read alike, the source gives them in different places.

What was measured:
[1] = Hydrolytic degradation kinetics of neat monomers by 1H NMR; format: physicochemical; details: for Percent remaining monomer: 50 mM monomer, aqueous pH=1, 37° C.; for final degradation percentage: over one month, acidic aqueous conditions (pH=1); for half-life at 50 mM: fit to exponential decay curves, pH=1, read-out: monomer half-life (converted)
Procedure: Neat monomers were subject to the hydrolytic degradation kinetics assay. An aqueous solution (pH=1) was prepared using HPLC grade water and adjusted using 1.0 M HCI. A 50 mM solution of each monomer (n=3) was prepared using 1.0 mL of the acidic aqueous solution. A capillary tube was filled with a 50 mM solution of tetramethylammonium bromide dissolved in D2O and flame sealed. The capillary tube was placed at the bottom on the NMR tube to allow the “locking on” of the instrument and to act as an internal standard. ^1H NMR spectra were obtained using a water suppression by excitation sculpting experiment. After the initial reading, the NMR tubes were flame sealed and incubated at 37° C. During the first week and after 12, 19, and 30 days, the samples were removed from incubation to obtain water suppressed ^1H NMR spectra. To determine the amount of monomer degradation, spectra were first aligned using the ITSD singlet peak and then an integration region unique to a monomer vinyl proton and an integration region unique to a degradation product (methacrylic or acrylic acid) vinyl proton were used to calculate the ratio of monomer to degradation product. […] Additional integration regions on either side of the vinyl region were used to determine the average amount of noise in each spectra. Degradation product values with a signal to noise ratio of less than 10 were considered to show no measurable amount of degradation.

[2] = Cytotoxicity (MTT) assay, OD-21 cells; details: mouse
Procedure: (§1) For the cytotoxicity assay, two cell types were tested—odontoblast-like cell line (OD-21) and human dental pulp stem cells (hDPSC) (cat #PT5025, Lonza). […] Cells were kept in an incubator at 37° C., under humidified atmosphere with 5% CO 2 for 2-3 days until confluence was reached. Next, cells were washed with Dulbecco's phosphate buffered saline solution (PBS—Thermo Fisher Scientific) and detached from the culture flasks using 0.05% trypsin/0.02% EDTA (Sigma). Cells were counted using a hemocytometer, then 10,000 cells per well were seeded in 96-well plates for 24 hours (n=6).
(§2) From these stocks, six different concentrated solutions (0.05, 0.1, 0.5, 1, 5 and 10 mM) were prepared in cell culture medium (DMEM for OD-21 and α-MEM for DPSC) and 100 μl per well was used to incubate the cells.
(§3) Next, 200 μl of DMSO was added to each well, plates were gently agitated and the optical density was read at 570 nm and 630 nm in a spectrophotometer (Epoch Microplate Spectrophotometer, BioTek Instruments Inc, Winooski, VT, USA). OD-21 and DPSCs cultured in the medium free from the monomers were used as negative controls. Additionally, since monomer fluorescence could affect the readings, 10 mM samples of each tested monomer were incubated without cells and their absorbance measured to provide a second control (i.e. medium control). The percentage of cell viability was calculated according to the equations:
(§4) ODcells=(OD570 exper−OD630 exper)−(OD570 med contr−OD630 med contr) Equation (3)
(§5) where: ODcell is the absorbance of the remaining cells after exposure; ODexper is the absorbance of the experimental specimens at 570 nm and 630 nm; ODmed contr is the absorbance of the 10 mM solution of each monomer without cells at 570 nm and 630 nm.
(§6) where: CV (%) is percentage of cell viability in relation to the negative control (cells+medium free from the monomers); ODcells neg contr is the cells absorbance of the negative control; ODcells exper is the cells absorbance of the experimental samples.
(§7) The half maximal inhibitory concentration (IC50) of each tested monomer was determined based on the plots of cell inhibition (%) as a function of the monomers concentration (mM) using GraphPad software.

[3] = tested on: odontoblast-like cell line (OD-21); assay: Cytotoxicity (MTT) assay, OD-21 cells; details: for IC50: read-out: IC50 OD-21; for cell viability, comparison between monomers: OD-21, at 10 and 5 mM
Procedure: as §1, §2, §3, §4, §5, §6, §7

[4] = tested on: human dental pulp stem cells (hDPSC); assay: Cytotoxicity (MTT) assay, hDPSC; details: for biocompatibility compared with methacrylates: DPSC; for IC50: read-out: IC50 DPSC
Procedure: as §1, §2, §3, §4, §5, §6, §7

[5] = Partition coefficient (logP); format: physicochemical; details: values not given; source of logP not stated
From the text: When stored dry, all materials had flexural strengths and elastic moduli that were statistically similar to the control. […] […]. The logP determines the likelihood of a compound to partition into water or octanol, with the most hydrophilic compounds presenting lower logP values. Amides are in general more hydrophilic than methacrylates because of the […] of the nitrogen atom in the amide compared to the oxygen in the methacrylate. In addition, the presence of a lone pair of electrons on the nitrogen leads to stabilization of the carbon-nitrogen bond by resonance with the carbonyl. The oxygen in the amide, in turn, assumes a partial negative charge (δ−), making it more prone to function as a hydrogen-bond acceptor. Conversely, the hydrogen of the N-H dipole is partially positively charged (δ+), which renders it a hydrogen-bond donor.

[6] = neat monomer, 24 hours exposure, MTT

Work on `C=CC(=O)N(C)CCCN(C)CCCN(C)C(=O)C=C` yielded a Percent remaining monomer ([1]; day 0) of 100.0 ± 0.0%, a Percent remaining monomer ([1]; day 1) of 99.8 ± 0.01% and a Percent remaining monomer ([1]; day 2) of 100.0 ± 0.0%. For the same molecule, the Percent remaining monomer ([1]; day 3) was 100.0 ± 0.0%, the Percent remaining monomer ([1]; day 4) was 100.0 ± 0.0% and the Percent remaining monomer ([1]; day 5) was 99.7 ± 0.01%. For the same molecule, the Percent remaining monomer ([1]; day 6) was 100.0 ± 0.0%, the Percent remaining monomer ([1]; day 7) was 100.0 ± 0.0% and the Percent remaining monomer ([1]; day 12) was 100.0 ± 0.0%. For the same molecule, the Percent remaining monomer ([1]; day 19) was 99.7 ± 0.3%, the Percent remaining monomer ([1]; day 30) was 98.7 ± 1.3% and the final degradation percentage [1] was 1.27%. It also gave a viability at 24 h, 5 mM [2] of 24%, a viability at 24 h, 10 mM [2] of 12% and an IC50 ([3]; Mus musculus, 24 h) of 4.75 mM. For the same molecule, the “cell viability, comparison between monomers” value [3] was “the lowest cell viability”, the “biocompatibility compared with methacrylates” value ([4]; 5 mM) was “less biocompatible than the tested methacrylates” and the IC50 ([4]; Homo sapiens, 24 h) was 0.54 mM.
Molecule `C=CC(=O)N(C)CCN(CCN(C)C(=O)C=C)CCN(C)C(=O)C=C` has a Percent remaining monomer ([1]; day 0) of 100.0 ± 0.0%, a Percent remaining monomer ([1]; day 1) of 99.8 ± 0.2% and a Percent remaining monomer ([1]; day 2) of 99.8 ± 0.2%. It also gave a Percent remaining monomer ([1]; day 3) of 99.3 ± 0.7%, a Percent remaining monomer ([1]; day 4) of 99.2 ± 0.9% and a Percent remaining monomer ([1]; day 5) of 99.1 ± 0.7%. It also gave a Percent remaining monomer ([1]; day 6) of 99.0 ± 1.0%, a Percent remaining monomer ([1]; day 7) of 98.7 ± 1.3% and a Percent remaining monomer ([1]; day 19) of 96.7 ± 1.8%. For the same molecule, the Percent remaining monomer ([1]; day 30) was 93.7 ± 0.7%, the half-life at 50 mM [1] was 350 days and the final degradation percentage [1] was 6.29%. For the same molecule, the IC50 ([3]; Mus musculus, 24 h) was 8.02 mM, the “biocompatibility compared with methacrylates” value ([4]; 0.5 mM) was “less biocompatible than the tested methacrylates” and the IC50 ([4]; Homo sapiens, 24 h) was 1.07 mM. The “logP, ranking among tested monomers” value [5] was “lower logP”.
`C=CC(=O)NN1CCCN(NC(=O)C=C)CC1` [BAADA, N,N′-bis(acrylamido) 1,4-diazepane] showed a Percent remaining monomer ([1]; day 0) of 100.0 ± 0.0%, a Percent remaining monomer ([1]; day 1) of 100.0 ± 0.0% and a Percent remaining monomer ([1]; day 2) of 100.0 ± 0.0%. The Percent remaining monomer ([1]; day 3) was 100.0 ± 0.0%, the Percent remaining monomer ([1]; day 4) was 99.8 ± 0.2% and the Percent remaining monomer ([1]; day 6) was 100.0 ± 0.0%. It also gave a Percent remaining monomer ([1]; day 12) of 99.6 ± 0.4%, a Percent remaining monomer ([1]; day 19) of 92.3 ± 0.7% and a Percent remaining monomer ([1]; day 30) of 98.9 ± 1.2%. It also gave a final degradation percentage [1] of 1.13%, an IC50 ([3]; Mus musculus, 24 h) of 9.98 mM and an IC50 ([4]; Homo sapiens, 24 h) of 3.65 mM.
`C=C(C)C(=O)OCCO` [HEMA, 2-hydroxyethyl methacrylate, reference compound] gave a Percent remaining monomer ([1]; day 0) of 99.2 ± 0.6%, a Percent remaining monomer ([1]; day 1) of 93.1 ± 0.04% and a Percent remaining monomer ([1]; day 2) of 87.6 ± 0.02%. For the same molecule, the Percent remaining monomer ([1]; day 3) was 81.3 ± 0.02%, the Percent remaining monomer ([1]; day 4) was 76.5 ± 0.01% and the Percent remaining monomer ([1]; day 5) was 71.3 ± 0.02%. The Percent remaining monomer ([1]; day 6) was 66.1 ± 0.02%, the Percent remaining monomer ([1]; day 7) was 61.9 ± 0.01% and the Percent remaining monomer ([1]; day 12) was 43.1 ± 0.02%. The Percent remaining monomer ([1]; day 19) was 25.2 ± 0.02%, the Percent remaining monomer ([1]; day 30) was 10.6 ± 0.1% and the half-life at 50 mM [1] was 9.5 days. The final degradation percentage [1] was 89.38%, the IC50 ([3]; Mus musculus, 24 h) was 15.4 mM and the “cell viability, comparison between monomers” value [3] was “the highest”. It also gave an IC50 ([4]; Homo sapiens, 24 h) of 6.87 mM.
Molecule “N,N-Diethyl-1,3-bis(acrylamido)propane [DEBAAP, reference compound]” has an IC50 [3, 6] of 7.11 mM and an IC50 [4, 6] of 8.43 mM.
In the case of “urethane dimethacrylate [UDMA, reference compound]”, the IC50 [3, 6] is reported as 7.94 mM and the IC50 [4, 6] is reported as 10.3 mM.
